Measurements as given in ChEMBL document CHEMBL4507296 (2021).

Tests used:
[1] = target: Prostaglandin G/H synthase 2 (Homo sapiens) (UniProt P35354); test: Cyclooxygenase 2 (human) CEREP ligand profiling; conditions: Compound concentration 10.0 uM
[2] = target: Activin receptor type-1-like (Homo sapiens) (UniProt P37023); conditions: Compound concentration 1000.0 nM
[3] = target: Aurora kinase B (Homo sapiens) (UniProt Q96GD4); conditions: Compound concentration 1000.0 nM
[4] = target: Tyrosine-protein kinase receptor UFO (Homo sapiens) (UniProt P30530); conditions: Compound concentration 1000.0 nM
[5] = target: Peripheral plasma membrane protein CASK (Homo sapiens) (UniProt O14936); conditions: Compound concentration 1000.0 nM
[6] = target: Cyclin-dependent kinase 13 (Homo sapiens) (UniProt Q14004); conditions: Compound concentration 1000.0 nM
[7] = target: Cyclin-dependent kinase 19 (Homo sapiens) (UniProt Q9BWU1); conditions: Compound concentration 1000.0 nM
[8] = target: Cyclin-dependent kinase 7 (Homo sapiens) (UniProt P50613); conditions: Compound concentration 1000.0 nM
[9] = target: Cyclin-dependent kinase-like 3 (Homo sapiens) (UniProt Q8IVW4); conditions: Compound concentration 1000.0 nM
[10] = target: Dual specificity protein kinase CLK1 (Homo sapiens) (UniProt P49759); conditions: Compound concentration 1000.0 nM
Dual specificity protein kinase CLK1 (Homo sapiens), sequence (P49759 whole entry, looked up): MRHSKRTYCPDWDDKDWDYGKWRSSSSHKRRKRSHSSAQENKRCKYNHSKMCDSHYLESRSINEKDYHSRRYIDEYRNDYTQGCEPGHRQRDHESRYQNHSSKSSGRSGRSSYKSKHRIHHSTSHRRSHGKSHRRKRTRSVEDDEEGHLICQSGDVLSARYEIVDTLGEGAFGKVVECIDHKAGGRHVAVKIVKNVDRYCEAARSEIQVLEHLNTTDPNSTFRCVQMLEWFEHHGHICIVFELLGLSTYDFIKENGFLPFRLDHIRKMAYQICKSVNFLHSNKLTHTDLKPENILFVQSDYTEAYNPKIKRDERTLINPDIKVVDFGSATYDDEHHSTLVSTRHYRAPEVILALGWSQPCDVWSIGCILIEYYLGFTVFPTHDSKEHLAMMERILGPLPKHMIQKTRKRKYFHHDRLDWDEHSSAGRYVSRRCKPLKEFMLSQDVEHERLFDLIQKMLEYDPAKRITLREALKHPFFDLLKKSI

[11] = target: Tyrosine-protein kinase CSK (Homo sapiens) (UniProt P41240); conditions: Compound concentration 1000.0 nM
[12] = target: Serine/threonine-protein kinase MRCK gamma (Homo sapiens) (UniProt Q6DT37); conditions: Compound concentration 1000.0 nM
[13] = test system: Epidermal growth factor receptor (Homo sapiens), P00533 [G719C]; conditions: Compound concentration 1000.0 nM
[14] = test system: Epidermal growth factor receptor (Homo sapiens), P00533 [G719S]; conditions: Compound concentration 1000.0 nM
[15] = test system: Epidermal growth factor receptor (Homo sapiens), P00533 [UNDEFINED MUTATION]; conditions: Compound concentration 1000.0 nM
[16] = test system: Epidermal growth factor receptor (Homo sapiens), P00533 [UNDEFINED MUTATION]; conditions: Compound concentration 1000.0 nM; remark: listed apart in the source
[17] = test system: Epidermal growth factor receptor (Homo sapiens), P00533 [L861Q]; conditions: Compound concentration 1000.0 nM
[18] = test system: Receptor-type tyrosine-protein kinase FLT3 (Homo sapiens), P36888 [D835V]; conditions: Compound concentration 1000.0 nM
[19] = target: Vascular endothelial growth factor receptor 3 (Homo sapiens) (UniProt P35916); conditions: Compound concentration 1000.0 nM
[20] = target: Interleukin-1 receptor-associated kinase 3 (Homo sapiens) (UniProt Q9Y616); conditions: Compound concentration 1000.0 nM
[21] = target: Mast/stem cell growth factor receptor Kit (Homo sapiens) (UniProt P10721); conditions: Compound concentration 1000.0 nM
[22] = test system: Leucine-rich repeat serine/threonine-protein kinase 2 (Homo sapiens), Q5S007 [G2019S]; conditions: Compound concentration 1000.0 nM
[23] = target: Dual specificity mitogen-activated protein kinase kinase 1 (Homo sapiens) (UniProt Q02750); conditions: Compound concentration 1000.0 nM
[24] = target: MAP kinase-interacting serine/threonine-protein kinase 1 (Homo sapiens) (UniProt Q9BUB5); conditions: Compound concentration 1000.0 nM
[25] = target: Serine/threonine-protein kinase MRCK beta (Homo sapiens) (UniProt Q9Y5S2); conditions: Compound concentration 1000.0 nM
Serine/threonine-protein kinase MRCK beta (Homo sapiens), sequence (Q9Y5S2 whole entry): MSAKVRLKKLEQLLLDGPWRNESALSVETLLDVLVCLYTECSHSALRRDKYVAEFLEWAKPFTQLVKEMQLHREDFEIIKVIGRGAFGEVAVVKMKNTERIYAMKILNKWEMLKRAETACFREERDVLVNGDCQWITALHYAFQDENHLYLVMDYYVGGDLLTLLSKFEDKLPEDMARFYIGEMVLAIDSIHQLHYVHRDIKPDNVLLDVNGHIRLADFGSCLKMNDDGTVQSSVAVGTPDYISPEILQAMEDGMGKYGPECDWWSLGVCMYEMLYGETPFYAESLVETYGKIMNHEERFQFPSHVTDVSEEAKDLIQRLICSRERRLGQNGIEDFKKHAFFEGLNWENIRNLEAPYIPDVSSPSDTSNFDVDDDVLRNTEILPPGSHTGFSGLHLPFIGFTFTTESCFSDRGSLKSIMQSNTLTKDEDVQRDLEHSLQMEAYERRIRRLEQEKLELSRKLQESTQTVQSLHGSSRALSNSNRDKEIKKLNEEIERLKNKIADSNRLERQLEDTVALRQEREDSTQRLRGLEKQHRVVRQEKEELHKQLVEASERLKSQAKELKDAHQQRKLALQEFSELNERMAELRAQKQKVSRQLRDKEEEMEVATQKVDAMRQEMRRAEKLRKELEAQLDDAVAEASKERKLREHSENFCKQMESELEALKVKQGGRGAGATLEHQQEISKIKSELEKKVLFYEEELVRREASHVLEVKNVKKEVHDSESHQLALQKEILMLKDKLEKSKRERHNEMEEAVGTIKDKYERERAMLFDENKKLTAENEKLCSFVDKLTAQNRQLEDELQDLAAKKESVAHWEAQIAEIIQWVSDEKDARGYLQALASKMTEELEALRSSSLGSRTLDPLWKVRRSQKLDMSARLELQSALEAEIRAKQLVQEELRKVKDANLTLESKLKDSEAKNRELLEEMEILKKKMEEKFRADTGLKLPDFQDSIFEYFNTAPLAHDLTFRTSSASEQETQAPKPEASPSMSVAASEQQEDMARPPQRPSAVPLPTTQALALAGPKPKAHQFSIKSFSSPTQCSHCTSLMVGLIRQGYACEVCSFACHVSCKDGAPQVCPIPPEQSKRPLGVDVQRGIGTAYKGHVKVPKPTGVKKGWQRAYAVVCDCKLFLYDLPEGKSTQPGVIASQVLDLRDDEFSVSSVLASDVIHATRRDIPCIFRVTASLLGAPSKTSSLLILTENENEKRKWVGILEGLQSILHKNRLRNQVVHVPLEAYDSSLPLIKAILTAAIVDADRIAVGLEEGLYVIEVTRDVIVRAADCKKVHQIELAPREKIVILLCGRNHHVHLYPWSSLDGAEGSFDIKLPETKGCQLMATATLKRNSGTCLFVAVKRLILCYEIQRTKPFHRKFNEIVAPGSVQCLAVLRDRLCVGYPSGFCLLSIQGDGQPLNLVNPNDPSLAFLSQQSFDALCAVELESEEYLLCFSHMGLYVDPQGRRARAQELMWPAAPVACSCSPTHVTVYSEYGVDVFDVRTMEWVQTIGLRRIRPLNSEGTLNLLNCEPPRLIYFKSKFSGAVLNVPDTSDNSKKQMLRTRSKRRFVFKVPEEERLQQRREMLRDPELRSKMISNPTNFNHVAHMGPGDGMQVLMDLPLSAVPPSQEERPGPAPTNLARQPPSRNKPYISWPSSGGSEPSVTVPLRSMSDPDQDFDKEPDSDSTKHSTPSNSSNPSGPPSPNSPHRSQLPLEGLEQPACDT

[26] = target: Serine/threonine-protein kinase Nek3 (Homo sapiens) (UniProt P51956); conditions: Compound concentration 1000.0 nM
[27] = target: Serine/threonine-protein kinase Nek4 (Homo sapiens) (UniProt P51957); conditions: Compound concentration 1000.0 nM
[28] = target: Phosphorylase b kinase gamma catalytic chain, skeletal muscle/heart isoform (Homo sapiens) (UniProt Q16816); conditions: Compound concentration 1000.0 nM
[29] = test system: Phosphatidylinositol 4,5-bisphosphate 3-kinase catalytic subunit alpha isoform (Homo sapiens), P42336 [C420R]; conditions: Compound concentration 1000.0 nM
[30] = test system: Phosphatidylinositol 4,5-bisphosphate 3-kinase catalytic subunit alpha isoform (Homo sapiens), P42336 [E545K]; conditions: Compound concentration 1000.0 nM
[31] = target: Phosphatidylinositol 4-kinase beta (Homo sapiens) (UniProt Q9UBF8); conditions: Compound concentration 1000.0 nM
[32] = target: Serine/threonine-protein kinase pim-2 (Homo sapiens) (UniProt Q9P1W9); conditions: Compound concentration 1000.0 nM
[33] = target: Phosphatidylinositol 5-phosphate 4-kinase type-2 gamma (Homo sapiens) (UniProt Q8TBX8); conditions: Compound concentration 1000.0 nM
[34] = target: Ribosomal protein S6 kinase alpha-1 (Homo sapiens) (UniProt Q15418); conditions: Compound concentration 1000.0 nM
[35] = target: Ribosomal protein S6 kinase alpha-3 (Homo sapiens) (UniProt P51812); conditions: Compound concentration 1000.0 nM
[36] = target: NUAK family SNF1-like kinase 2 (Homo sapiens) (UniProt Q9H093); conditions: Compound concentration 1000.0 nM
NUAK family SNF1-like kinase 2 (Homo sapiens), sequence (Q9H093 whole entry): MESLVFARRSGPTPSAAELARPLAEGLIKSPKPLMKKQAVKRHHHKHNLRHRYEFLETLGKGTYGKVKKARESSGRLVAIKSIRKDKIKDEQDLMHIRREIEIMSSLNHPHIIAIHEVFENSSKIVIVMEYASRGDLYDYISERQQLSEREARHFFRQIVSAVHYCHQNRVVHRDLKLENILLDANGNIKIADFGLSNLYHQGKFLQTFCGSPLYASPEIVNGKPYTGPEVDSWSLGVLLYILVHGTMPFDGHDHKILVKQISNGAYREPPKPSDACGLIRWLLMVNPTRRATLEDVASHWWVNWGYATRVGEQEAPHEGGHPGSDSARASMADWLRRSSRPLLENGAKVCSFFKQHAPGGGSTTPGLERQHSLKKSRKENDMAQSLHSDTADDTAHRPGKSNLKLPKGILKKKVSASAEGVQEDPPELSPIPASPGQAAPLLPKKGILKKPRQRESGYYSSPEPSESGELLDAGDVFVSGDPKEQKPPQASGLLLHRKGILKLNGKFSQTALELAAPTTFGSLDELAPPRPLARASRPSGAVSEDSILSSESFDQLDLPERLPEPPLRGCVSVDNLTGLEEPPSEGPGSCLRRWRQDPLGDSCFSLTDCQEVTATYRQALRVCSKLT

[37] = target: Tyrosine-protein kinase Tec (Homo sapiens) (UniProt P42680); conditions: Compound concentration 1000.0 nM
[38] = target: Tyrosine-protein kinase TXK (Homo sapiens) (UniProt P42681); conditions: Compound concentration 1000.0 nM
[39] = target: Tyrosine-protein kinase receptor TYRO3 (Homo sapiens) (UniProt Q06418); conditions: Compound concentration 1000.0 nM
[40] = target: Serine/threonine-protein kinase ULK3 (Homo sapiens) (UniProt Q6PHR2); conditions: Compound concentration 1000.0 nM
[41] = target: Serine/threonine-protein kinase WNK2 (Homo sapiens) (UniProt Q9Y3S1); conditions: Compound concentration 1000.0 nM
Serine/threonine-protein kinase WNK2 (Homo sapiens), sequence (Q9Y3S1 whole entry): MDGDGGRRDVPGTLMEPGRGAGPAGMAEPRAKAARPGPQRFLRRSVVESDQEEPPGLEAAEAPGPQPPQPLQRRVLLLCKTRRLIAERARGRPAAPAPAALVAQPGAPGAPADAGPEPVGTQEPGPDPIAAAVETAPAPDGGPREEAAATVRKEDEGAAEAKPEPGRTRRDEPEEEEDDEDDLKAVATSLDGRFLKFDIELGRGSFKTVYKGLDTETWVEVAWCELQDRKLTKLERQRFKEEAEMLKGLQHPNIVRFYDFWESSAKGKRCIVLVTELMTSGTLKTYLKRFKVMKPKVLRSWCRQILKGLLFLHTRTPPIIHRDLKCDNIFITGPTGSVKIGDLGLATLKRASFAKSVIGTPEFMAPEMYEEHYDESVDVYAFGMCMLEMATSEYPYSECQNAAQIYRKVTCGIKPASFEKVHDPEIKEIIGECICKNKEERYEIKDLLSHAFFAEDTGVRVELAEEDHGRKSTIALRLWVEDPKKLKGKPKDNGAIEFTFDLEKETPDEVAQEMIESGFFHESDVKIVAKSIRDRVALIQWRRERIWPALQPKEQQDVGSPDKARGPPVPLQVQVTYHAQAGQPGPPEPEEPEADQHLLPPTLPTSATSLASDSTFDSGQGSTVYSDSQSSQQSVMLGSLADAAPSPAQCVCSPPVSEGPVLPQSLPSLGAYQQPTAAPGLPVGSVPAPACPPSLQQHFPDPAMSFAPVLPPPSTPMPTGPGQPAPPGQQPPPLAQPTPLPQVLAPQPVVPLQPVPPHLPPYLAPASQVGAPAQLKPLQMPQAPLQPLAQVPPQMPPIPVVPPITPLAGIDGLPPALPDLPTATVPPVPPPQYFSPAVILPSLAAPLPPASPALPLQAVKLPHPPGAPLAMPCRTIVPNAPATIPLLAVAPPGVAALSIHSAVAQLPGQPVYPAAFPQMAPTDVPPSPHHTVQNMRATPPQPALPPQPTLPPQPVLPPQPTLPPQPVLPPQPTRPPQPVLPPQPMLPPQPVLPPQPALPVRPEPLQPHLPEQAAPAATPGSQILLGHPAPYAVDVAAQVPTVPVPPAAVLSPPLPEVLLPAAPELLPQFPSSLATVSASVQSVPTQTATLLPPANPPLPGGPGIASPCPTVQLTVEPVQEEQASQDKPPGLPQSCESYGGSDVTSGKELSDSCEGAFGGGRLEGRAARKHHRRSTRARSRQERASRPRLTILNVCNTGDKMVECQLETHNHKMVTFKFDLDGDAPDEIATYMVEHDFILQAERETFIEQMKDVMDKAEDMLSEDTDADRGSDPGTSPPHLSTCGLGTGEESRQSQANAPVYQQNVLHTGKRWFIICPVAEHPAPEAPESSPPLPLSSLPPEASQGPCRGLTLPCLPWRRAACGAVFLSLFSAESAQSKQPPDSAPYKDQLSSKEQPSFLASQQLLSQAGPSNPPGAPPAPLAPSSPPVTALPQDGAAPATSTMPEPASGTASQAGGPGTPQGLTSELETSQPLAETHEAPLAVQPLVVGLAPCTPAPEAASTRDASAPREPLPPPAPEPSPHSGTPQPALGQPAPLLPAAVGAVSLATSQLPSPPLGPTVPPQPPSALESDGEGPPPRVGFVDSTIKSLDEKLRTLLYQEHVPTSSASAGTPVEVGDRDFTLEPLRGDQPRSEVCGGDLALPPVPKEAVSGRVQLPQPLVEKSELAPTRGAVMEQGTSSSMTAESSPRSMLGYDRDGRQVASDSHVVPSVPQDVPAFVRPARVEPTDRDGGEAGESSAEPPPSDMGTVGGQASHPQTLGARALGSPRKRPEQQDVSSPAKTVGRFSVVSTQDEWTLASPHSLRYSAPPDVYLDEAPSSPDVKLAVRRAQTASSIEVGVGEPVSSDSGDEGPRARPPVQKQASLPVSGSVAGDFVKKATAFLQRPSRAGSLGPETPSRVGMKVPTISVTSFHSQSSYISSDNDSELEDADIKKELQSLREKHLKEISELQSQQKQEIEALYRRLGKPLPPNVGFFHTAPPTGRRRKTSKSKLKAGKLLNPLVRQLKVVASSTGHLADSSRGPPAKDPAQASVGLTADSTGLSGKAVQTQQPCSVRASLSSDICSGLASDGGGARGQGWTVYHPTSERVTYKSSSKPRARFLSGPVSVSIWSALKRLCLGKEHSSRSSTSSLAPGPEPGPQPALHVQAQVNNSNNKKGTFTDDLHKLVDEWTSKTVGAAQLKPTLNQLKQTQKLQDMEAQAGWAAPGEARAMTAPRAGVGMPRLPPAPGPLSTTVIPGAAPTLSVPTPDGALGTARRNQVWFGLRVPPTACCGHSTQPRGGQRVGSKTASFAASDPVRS

[42] = target: Serine/threonine-protein kinase WNK3 (Homo sapiens) (UniProt Q9BYP7); conditions: Compound concentration 1000.0 nM
[43] = target: Mitogen-activated protein kinase kinase kinase 19 (Homo sapiens) (UniProt Q56UN5); conditions: Compound concentration 1000.0 nM
[44] = target: Beta-2 adrenergic receptor (Homo sapiens) (UniProt P07550); conditions: Compound concentration 10.0 uM
[45] = target: Beta-3 adrenergic receptor (Homo sapiens) (UniProt P13945); conditions: Compound concentration 10.0 uM

C[C@H](c1ccc(F)cc1)N(Cc1cccc(C(=O)O)c1)C(=O)c1cnc2ccccc2c1 [PF-05105679]
inactive: inhibition [1] 21% | residual activity [2] 100% | residual activity [3] 100% | residual activity [4] 100% | residual activity [5] 86% | residual activity [6] 98% | residual activity [7] 100% | residual activity [8] 100% | residual activity [9] 64% | residual activity [10] 91% | residual activity [11] 100% | residual activity [12] 100% | residual activity [13] 90% | residual activity [14] 100% | residual activity [15] 100% | residual activity [16] 100% | residual activity [17] 100% | residual activity [18] 98% | residual activity [19] 95% | residual activity [20] 100% | residual activity [21] 100% | residual activity [22] 100% | residual activity [23] 100% | residual activity [24] 100% | residual activity [25] 94% | residual activity [26] 87% | residual activity [27] 100% | residual activity [28] 88% | residual activity [29] 100% | residual activity [30] 100% | residual activity [31] 98% | residual activity [32] 100% | residual activity [33] 81% | residual activity [34] 100% | residual activity [35] 100% | residual activity [36] 100% | residual activity [37] 80% | residual activity [38] 100% | residual activity [39] 100% | residual activity [40] 82% | residual activity [41] 96% | residual activity [42] 87% | residual activity [43] 72% | inhibition [44] 23.7% | inhibition [45] 2.81%
